The record followed here is ChEMBL document CHEMBL1151557, “Simplified analogs of himbacine displaying potent binding affinity for muscarinic receptors” (Bioorg Med Chem Lett, 1993).

The target of test [1] is T1, Muscarinic acetylcholine receptor M2 (Rattus norvegicus, UniProt P10980).
T1 sequence (P10980 whole entry): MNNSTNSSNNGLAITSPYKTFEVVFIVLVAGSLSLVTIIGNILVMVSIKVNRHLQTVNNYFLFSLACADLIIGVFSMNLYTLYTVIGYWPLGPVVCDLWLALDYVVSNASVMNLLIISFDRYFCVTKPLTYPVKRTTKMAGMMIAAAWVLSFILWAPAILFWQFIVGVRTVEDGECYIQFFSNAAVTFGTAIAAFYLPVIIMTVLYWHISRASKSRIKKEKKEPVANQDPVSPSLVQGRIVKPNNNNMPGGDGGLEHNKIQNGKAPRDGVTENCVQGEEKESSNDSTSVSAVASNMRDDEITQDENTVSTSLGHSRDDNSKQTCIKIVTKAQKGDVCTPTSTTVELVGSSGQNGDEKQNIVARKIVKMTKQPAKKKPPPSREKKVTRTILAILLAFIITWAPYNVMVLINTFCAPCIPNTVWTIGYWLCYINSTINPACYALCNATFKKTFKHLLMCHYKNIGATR
Nature of the test: Displacement of [3H]QNB from rat brain stem muscarinic receptor 2 (M2). (Displacement assays read how much labelled ligand stays bound in the presence of the test substance.)

Test [2] addresses T2, Muscarinic acetylcholine receptor M1 (Homo sapiens, UniProt P11229).
T2 sequence (P11229 whole entry): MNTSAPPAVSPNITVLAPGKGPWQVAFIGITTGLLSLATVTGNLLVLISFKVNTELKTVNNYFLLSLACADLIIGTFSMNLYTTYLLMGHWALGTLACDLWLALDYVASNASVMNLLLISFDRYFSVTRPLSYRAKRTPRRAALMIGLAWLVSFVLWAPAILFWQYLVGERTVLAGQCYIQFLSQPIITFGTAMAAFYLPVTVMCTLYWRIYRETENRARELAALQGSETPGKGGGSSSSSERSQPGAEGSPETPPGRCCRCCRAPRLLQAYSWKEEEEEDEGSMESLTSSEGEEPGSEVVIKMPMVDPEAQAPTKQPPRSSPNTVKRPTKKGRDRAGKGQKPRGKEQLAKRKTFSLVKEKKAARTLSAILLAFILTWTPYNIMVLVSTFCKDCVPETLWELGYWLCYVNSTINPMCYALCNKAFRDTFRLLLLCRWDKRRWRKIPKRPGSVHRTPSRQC
Nature of the test: Displacement of [3H]QNB from muscarinic receptor 1 expressed in CHO-K1 cells. The format is cell-based.

SMILES strings stand for the structures.

On to `CN1CCCCC1C/C=C/C1c2ccccc2Cc2ccccc21` (stereo not given), for which the dissociation constant Kd in test [1] is 22.6 nM; in test [2], 5.23 nM.

In the case of `CN1CCCCC1CCC=C1c2ccccc2Cc2ccccc21` (stereo not given), the Kd in test [1] is 7.64 nM; in test [2], 4.99 nM.

As for `CN1CCCC[C@@H]1/C=C/C1c2ccccc2Cc2ccccc21`, the Kd was determined as 3.17 nM in test [1] and 1.53 nM in test [2].

Consider `CN1CCCCC1/C=C/c1c2ccccc2cc2ccccc12` (stereo not given), for which the dissociation constant (Kd) amounted to 635 nM in test [1] and 679 nM in test [2].

Turning to `CN1CCCC[C@@H]1CC=C1c2ccccc2Cc2ccccc21`, the dissociation constant Kd in test [1] is 14.5 nM; in test [2], 11.6 nM.

In the case of `CN1CCCC[C@H]1CC=C1c2ccccc2Cc2ccccc21`, the Kd in test [1] was 35 nM; in test [2], 24.2 nM.

Turning to `CN1CCCC[C@H]1/C=C/C1c2ccccc2Cc2ccccc21`, the Kd in test [1] amounted to 2.19 nM; in test [2] it was 4.92 nM.

For `CN1CCCCC1/C=C/C1c2ccccc2Cc2ccccc21` (racemic), the figures for the Kd in test [1] and in test [2] were 20.5 nM and 1.75 nM, respectively.

With `CN1CCCCC1CC=C1c2ccccc2Cc2ccccc21` (racemic), the results for the Kd in test [1] and in test [2] were 3 nM and 2.7 nM, respectively.

As for `C[C@@H]1OC(=O)[C@H]2C[C@H]3CCCC[C@@H]3[C@@H](/C=C/[C@H]3CCC[C@H](C)N3C)[C@@H]12` [HIMBACINE], the Kd in test [1] was determined as 9.05 nM; in test [2], 168 nM.

For orientation: Kd means a measure of binding affinity in units of concentration.
